We go through 19 compounds from patent publication US9828366B2, “Bicyclic derivatives and pharmaceutical composition including the same” (HANMI PHARM. CO., LTD., priority 2014, dated 2017).

The first test deals with C57BL/6 male mice. Put plainly: Urinary glucose excretion test (UGE test). The format is in vivo. As to conditions: 3 mg/kg oral (Examples 13 to 38), 2 g/kg glucose after 30 minutes, urine collected for 24 hours. How it is done:
The pharmaceutical efficacies of the compounds prepared in the Examples were investigated by a urinary glucose excretion test using C57BL/6 male mice (8-week-old, prepared and supplied from Orient Chemical Co. Ltd.).
Two mice were used in each group. The mice were fasted for 16 hours, and the compound of each of the Examples [10 mg/kg of the compound of Examples 1 to 12; and 3 mg/kg of the compound of Examples 13 to 38] was dissolved in a vehicle [a mixed solution of 5% 1-methyl-2-pyrrolidinone, 20% PEG, and 75% 20 mM sodium diphosphate], and orally administered to the mice. After 30 minutes, 2 g/kg of glucose was orally administered to the mice in all the groups. Thereafter, the mice were immediately put into a metabolic cage, and urine was collected for 24 hours. The mice were freely fed an hour after the administration of glucose.
The results obtained from the test, that is, the results obtained by measuring urinary glucose excretion in the C57BL/6 male mice according to the compounds of the Examples, are listed in Table 5.
On to `CCOc1ccc(Cc2cc([C@@H]3O[C@H](CO)[C@@H](O)[C@H](O)[C@H]3O)cc3c2CCC3)cc1` [Example 13, (2S,3R,4R,5S,6R)-2-(7-(4-ethoxybenzyl)-2,3-dihydro-1H-inden-5-yl)-6-(hydroxymethyl)tetrahydro-2H-pyran-3,4,5-triol], for which the UGE is on record as 1.7 mg/20 g/24 hr. The compound `CCCc1ccc(Cc2cc([C@@H]3O[C@H](CO)[C@@H](O)[C@H](O)[C@H]3O)cc3c2CCC3)cc1` [Example 17, (2R,3S,4R,5R,6S)-2-(hydroxymethyl)-6-(7-(4-propylbenzyl)-2,3-dihydro-1H-inden-5-yl)tetrahydro-2H-pyran-3,4,5-triol] came in with a UGE of 1.0 mg/20 g/24 hr.

`CC(C)c1ccc(Cc2cc([C@@H]3O[C@H](CO)[C@@H](O)[C@H](O)[C@H]3O)cc3c2CCC3)cc1` [Example 18, (2R,3S,4R,5R,6S)-2-(hydroxymethyl)-6-(7-(4-isopropylbenzyl)-2,3-dihydro-1H-inden-5-yl)tetrahydro-2H-pyran-3,4,5-triol] yielded a UGE of 7.0 mg/20 g/24 hr. The compound `CCOc1ccc(Cc2cc([C@@H]3O[C@H](CO)[C@@H](O)[C@H](O)[C@H]3O)cc3c2CCC3)cc1F` [Example 20, (2S,3R,4R,5S,6R)-2-(7-(4-ethoxy-3-fluorobenzyl)-2,3-dihydro-1H-inden-5-yl)-6-(hydroxymethyl)tetrahydro-2H-pyran-3,4,5-triol] came in with a UGE of 0.6 mg/20 g/24 hr. `CCOc1ccc(Cc2cc([C@@H]3O[C@H](CO)[C@@H](O)[C@H](O)[C@H]3O)cc3c2CCC3)c(F)c1` [Example 21, (2S,3R,4R,5S,6R)-2-(7-(4-ethoxy-2-fluorobenzyl)-2,3-dihydro-1H-inden-5-yl)-6-(hydroxymethyl)tetrahydro-2H-pyran-3,4,5-triol] yielded a UGE of 4.2 mg/20 g/24 hr.

For the compound `Cc1ccc(Cc2cc([C@@H]3O[C@H](CO)[C@@H](O)[C@H](O)[C@H]3O)cc3c2CCC3)cc1F` [Example 25, (2S,3R,4R,5S,6R)-2-(7-(3-fluoro-4-methylbenzyl)-2,3-dihydro-1H-inden-5-yl)-6-(hydroxymethyl)tetrahydro-2H-pyran-3,4,5-triol], the UGE amounted to 5.5 mg/20 g/24 hr. Still for that read-out and setting: for `Cc1ccc(Cc2cc([C@@H]3O[C@H](CO)[C@@H](O)[C@H](O)[C@H]3O)cc3c2CCC3)c(F)c1` [Example 26, (2S,3R,4R,5S,6R)-2-(7-(2-fluoro-4-methylbenzyl)-2,3-dihydro-1H-inden-5-yl)-6-(hydroxymethyl)tetrahydro-2H-pyran-3,4,5-triol] the value was 4.8 mg/20 g/24 hr.

Still in this test, the particulars now being: 10 mg/kg oral (Examples 1 to 12), 2 g/kg glucose after 30 minutes, urine collected for 24 hours.
For `CCOc1ccc(Cc2cc([C@@H]3O[C@H](CO)[C@@H](O)[C@H](O)[C@H]3O)cc3c2OCC3)cc1` [Example 1, (2S,3R,4R,5S,6R)-2-(7-(4-ethoxybenzyl)-2,3-dihydrobenzofuran-5-yl)-6-hydroxymethyl-tetrahydro-2H-pyran-3,4,5-triol], the UGE was found to be 1.2 mg/20 g/24 hr.

`CCc1ccc(Cc2cc([C@@H]3O[C@H](CO)[C@@H](O)[C@H](O)[C@H]3O)cc3c2OCC3)cc1` [Example 2, (2S,3R,4R,5S,6R)-2-(7-(4-ethylbenzyl)-2,3-dihydrobenzofuran-5-yl)-6-hydroxymethyl-tetrahydro-2H-pyran-3,4,5-triol]: the UGE worked out at 8.3 mg/20 g/24 hr. `CCCc1ccc(Cc2cc([C@@H]3O[C@H](CO)[C@@H](O)[C@H](O)[C@H]3O)cc3c2OCC3)cc1` [Example 3, (2R,3S,4R,5R,6S)-2-hydroxymethyl-6-(7-(4-n-propylbenzyl)-2,3-dihydrobenzofuran-5-yl)-tetrahydro-2H-pyran-3,4,5-triol]: the UGE turned out to be 3.7 mg/20 g/24 hr. As to `OC[C@H]1O[C@@H](c2cc3c(c(Cc4ccc(C(F)(F)F)cc4)c2)OCC3)[C@H](O)[C@@H](O)[C@@H]1O` [Example 4, (2R,3S,4R,5R,6S)-2-hydroxymethyl-6-(7-(4-trifluoromethylbenzyl)-2,3-dihydrobenzofuran-5-yl)tetrahydro-2H-pyran-3,4,5-triol], the UGE stood at 4.6 mg/20 g/24 hr. On to `OC[C@H]1O[C@@H](c2cc3c(c(Cc4ccc(OC(F)(F)F)cc4)c2)OCC3)[C@H](O)[C@@H](O)[C@@H]1O` [Example 5, (2R,3S,4R,5R,6S)-2-hydroxymethyl-6-(7-(4-trifluoromethoxybenzyl)-2,3-dihydrobenzofuran-5-yl)tetrahydro-2H-pyran-3,4,5-triol], for which the UGE is recorded as 3.7 mg/20 g/24 hr. Turning to `OC[C@H]1O[C@@H](c2cc3c(c(Cc4ccc(F)cc4)c2)OCC3)[C@H](O)[C@@H](O)[C@@H]1O` [Example 6, (2S,3R,4R,5S,6R)-2-(7-(4-fluorobenzyl)-2,3-dihydrobenzofuran-5-yl)-6-(hydroxymethyl)tetrahydro-2H-pyran-3,4,5-triol], the UGE is listed as 3.9 mg/20 g/24 hr.

`OC[C@H]1O[C@@H](c2cc3c(c(Cc4ccc5c(c4)OCCO5)c2)OCC3)[C@H](O)[C@@H](O)[C@@H]1O` [Example 7, (2S,3R,4R,5S,6R)-2-(7-((2,3-dihydrobenzo[b][1,4]dioxin-6-yl)methyl)-2,3-dihydrobenzofuran-5-yl)-6-(hydroxymethyl)tetrahydro-2H-pyran-3,4,5-triol] showed a UGE of 2.8 mg/20 g/24 hr. The same measure, in the same setting: for `OC[C@H]1O[C@@H](c2cc3c(c(Cc4ccc(OCC5CC5)cc4)c2)OCC3)[C@H](O)[C@@H](O)[C@@H]1O` [Example 8, (2S,3R,4R,5S,6R)-2-(7-(4-(cyclopropylmethoxy)benzyl)-2,3-dihydrobenzofuran-5-yl)-6-(hydroxymethyl)tetrahydro-2H-pyran-3,4,5-triol] the value was 4.3 mg/20 g/24 hr; for `CCOc1ccc(Cc2cc([C@@H]3O[C@H](CO)[C@@H](O)[C@H](O)[C@H]3O)cc3c2OCC3)cc1F` [Example 9, (2S,3R,4R,5S,6R)-2-(7-(4-ethoxy-3-fluorobenzyl)-2,3-dihydrobenzofuran-5-yl)-6-(hydroxymethyl)tetrahydro-2H-pyran-3,4,5-triol], 4.6 mg/20 g/24 hr; for `CCOc1ccc(Cc2cc([C@@H]3O[C@H](CO)[C@@H](O)[C@H](O)[C@H]3O)cc3c2OCC3)c(F)c1` [Example 10, (2S,3R,4R,5S,6R)-2-(7-(4-ethoxy-2-fluorobenzyl)-2,3-dihydrobenzofuran-5-yl)-6-(hydroxymethyl)tetrahydro-2H-pyran-3,4,5-triol], 3.2 mg/20 g/24 hr. For the compound `OC[C@H]1O[C@@H](c2cc3c(c(Cc4ccc(O)cc4)c2)OCC3)[C@H](O)[C@@H](O)[C@@H]1O` [Example 11, (2S,3R,4R,5S,6R)-2-(7-(4-hydroxybenzyl)-2,3-dihydrobenzofuran-5-yl)-6-(hydroxymethyl)tetrahydro-2H-pyran-3,4,5-triol], the UGE worked out at 3.0 mg/20 g/24 hr. Still for that read-out and setting: for `CS(=O)(=O)CCCOc1ccc(Cc2cc(C3O[C@H](CO)[C@@H](O)[C@H](O)[C@H]3O)cc3c2OCC3)cc1` (stereo partly shown) [Example 12] the value was 0 mg/20 g/24 hr.
